Measured values reported in patent publication US12329158B2, “Large-scale methods of uniformly coating packaging surfaces with a volatile antimicrobial to preserve food freshness” (AGROFRESH INC., priority 2013, dated 2025).
Values after ≈ are worked out from the molar mass of the structure shown.

What was measured:
Format in all cases: cell-based
[1] = system: Penicillium expansum; assay: Volatile MIC assay (Example 10); conditions: 72 h, volatile treatment, 3 days at 23 C, read-out: MIC (mg/L) PENIEX
Method: (§1) 12-Well (6.5 mL volume per well) microtiter plates are used for the in vitro inhibition assay for volatile antimicrobial compounds. A 3-mL volume of full-strength Potato Dextrose Agar (PDA) is added to each well. After cooling, 1 μL of 1×10^5 per mL Botrytis cinerea and Penicillium expansum spore suspension is spot-pipetted to the center of the agar. Plates are inoculated immediately prior to volatile fungicide treatment. A Whatman #1 filter disk (Cat. No. 1001-0155) is placed, in duplicate, on the underside of a polyethylene PCR plate sealing film. […] The headspace around the inoculum is then sealed inside the well by the film with the adhering disk containing the fungicide by inverting the plates over the treated disks and sealing to prevent any of the chemical from flaking from the disk and falling onto the inoculated agar. After 3 days of storage at 23° C., the cultures are evaluated for percent growth relative to control based on measurement of fungal colony diameter.

[2] = system: Botrytis cinerea; assay: Volatile MIC assay (Example 10); conditions: 72 h, volatile treatment, 3 days at 23 C, read-out: MIC (mg/L) BOTRCI
Method: as §1

[3] = system: Penicillium expansum; assay: Volatile MIC assay (Example 9); conditions: 72 h, headspace concentration, 3 days at 23 C, read-out: MIC (mg/L) PENIEX
Method: (§2) A 3-mL volume of full-strength Potato Dextrose Agar (PDA) is added to each well. […] Plates are inoculated immediately prior to volatile fungicide treatment. A Whatman #1 filter disk (Cat. No. 1001-0155) is placed, in duplicate, on the underside of a polyethylene PCR plate sealing film. […] The acetone is permitted to evaporate for 5 minutes. The headspace around the inoculum is then sealed inside the well by the film with the adhering disk containing the fungicide by inverting the plates over the treated disks and sealing to prevent any of the chemical from flaking from the disk and falling onto the inoculated agar.

[4] = system: Botrytis cinerea; assay: Volatile MIC assay (Example 9); conditions: 72 h, headspace concentration, 3 days at 23 C, read-out: MIC (mg/L) BOTRCI
Method: as §2

[5] = system: Monilinia fructicola; assay: Volatile MIC assay (Example 9); conditions: 72 h, headspace concentration, 3 days at 23 C, read-out: MIC (mg/L) MONIFC
Method: as §2

[6] = system: Alternaria alternata; assay: Volatile MIC assay (Example 9); conditions: 72 h, headspace concentration, 3 days at 23 C, read-out: MIC (mg/L) ALTEAL
Method: as §2

[7] = system: Trichophyton rubrum; assay: In vitro volatile assay (Example 26); conditions: Trichophyton rubrum, 120 h, 5 days at 28 C, 100% control, read-out: MIC (mg/L) Trichophyton rubrum
Method: (§3) Volatile assay: 6-well (16.5 mL volume per well) microtiter plates are used in an in vitro inhibition assay for Compounds A and 31, and compared to other registered fungicides (5-fluorocytosine, Amphotericin B, aspofungin diacetate, Fluconazole and Itraconazole). A 7.5-mL volume of half strength PDA is added to each well. After drying, a mycelial plug (5 mm diameter) is aseptically obtained from actively growing cultures of Epidermophyton floccus, Trichophyton rubrum, or Trichophyton mentagrophytes and placed at the center of the plate with the mycelial side in contact with the agar. A Whatman #1 filter disk (Cat. No. 1001-325) is placed, in duplicate, on the underside of a polyethylene PCR plate sealing film. […] The headspace around the inoculum is then sealed inside the well by the film with the adhering disk containing the fungicide and incubated inverted for 5 days at 28° C.

[8] = system: Trichophyton mentagrophytes; assay: In vitro volatile assay (Example 26); conditions: Trichophyton mentagrophytes, 120 h, 5 days at 28 C, 100% control, read-out: MIC (mg/L) Trichophyton mentagrophytes
Method: as §3

[9] = system: Penicillium expansum; assay: In vitro volatile assay (Example 24); conditions: 72 h, headspace, 100% control, 3 days at 23 C, read-out: Volatile MIC (mg/L) P. expansum
Method: (§4) Volatile assay: 12-well (6.5 mL volume per well) microtiter plates are used. A 3-mL volume of half strength PDA is added to each well. […] A Whatman #1 filter disk (Cat. No. 1001-0155) is placed, in duplicate, on the underside of a polyethylene PCR plate sealing film. […] The acetone is permitted to evaporate for 5 minutes. The headspace around the inoculum is then sealed inside the well by the film with the adhering disk containing the fungicide. Plates are inverted, placed over the treated disks, and sealed to prevent any of the chemical from flaking from the disk and falling onto the inoculated agar. […] Contact assay: 6-well (16.5 mL volume per well) microtiter plates are used for an in vitro inhibition assay. […] A 7.5-mL volume of the amended media is added to each well of the microtiter plate. […] The plates are sealed with a clear film and incubated for 3 days at 23° C. After incubation, plates are evaluate for percent growth relative to acetone only control.

[10] = system: Botrytis cinerea; assay: In vitro volatile assay (Example 24); conditions: 72 h, headspace, 100% control, 3 days at 23 C, read-out: Volatile MIC (mg/L) B. cinerea
Method: as §4

[11] = system: P. expansum; assay: In vitro contact assay, amended agar (Example 24); conditions: Penicillium expansum, 72 h; amended agar; 100% control; 3 days at 23 C; read-out: Contact MIC (mg/L) P. expansum
Method: (§5) Contact assay: 6-well (16.5 mL volume per well) microtiter plates are used for an in vitro inhibition assay. […] A 7.5-mL volume of the amended media is added to each well of the microtiter plate. […] The plates are sealed with a clear film and incubated for 3 days at 23° C. After incubation, plates are evaluate for percent growth relative to acetone only control.

[12] = system: B. cinerea; assay: In vitro contact assay, amended agar (Example 24); conditions: Botrytis cinerea, 72 h; amended agar; 100% control; 3 days at 23 C; read-out: Contact MIC (mg/L) B. cinerea
Method: as §5

[13] = system: Trichophyton rubrum; assay: In vitro contact assay (Example 26); conditions: Trichophyton rubrum, 120 h, 5 days at 28 C, 100% control, read-out: MIC (mg/L) Trichophyton rubrum
Method: (§6) Half-strength Potato Dextrose Agar (PDA) is amended with a mixture of one of the test compounds in acetone or methanol to a final concentration of 50, 10, 2, 0.4 or 0.08 mg/L. A 3-mL volume of the amended media is added to each well of the microtiter plate. […] The plates are sealed with a clear film and incubated inverted for 5 days at 28° C.

[14] = system: Trichophyton mentagrophytes; assay: In vitro contact assay (Example 26); conditions: Trichophyton mentagrophytes, 120 h, 5 days at 28 C, 100% control, read-out: MIC (mg/L) Trichophyton mentagrophytes
Method: as §6

`NCCOB1OCc2ccccc21` [Compound 21] showed an MIC [1] of 35.7 mg/L (≈ 202 µM) and an MIC [2] of 1.1 mg/L (≈ 6.21 µM).

Compound `CN(C)CCOB1OCc2ccccc21` [Compound 22] has an MIC [1] of 35.7 mg/L (≈ 174 µM) and an MIC [2] of 4.5 mg/L (≈ 21.9 µM).

In the case of `CCCCOB1OCc2cc(F)ccc21` [Compound 30], the MIC [3] is reported as 8.9 mg/L (≈ 42.8 µM), the MIC [4] is reported as 2.2 mg/L (≈ 10.6 µM) and the MIC [5] is reported as 2.2 mg/L (≈ 10.6 µM). For the same compound, the MIC [6] was 2.2 mg/L (≈ 10.6 µM).

Work on `CC(COB1OCc2cc(F)ccc21)OB1OCc2cc(F)ccc21` (stereo not shown) [Compound 31] yielded an MIC [7] of 2 mg/L (≈ 5.82 µM), an MIC [8] of 2 mg/L (≈ 5.82 µM) and an MIC [9] of 8.9 mg/L (≈ 25.9 µM). The MIC [10] was 0.6 mg/L (≈ 1.74 µM), the MIC [11] was 2 mg/L (≈ 5.82 µM) and the MIC [12] was 0.4 mg/L (≈ 1.16 µM). For the same compound, the MIC [13] was 10 mg/L (≈ 29.1 µM) and the MIC [14] was 2 mg/L (≈ 5.82 µM).

`NCCOB1OCc2cc(F)ccc21` [Compound 34] gave an MIC [9] of 2.2 mg/L (≈ 11.3 µM), an MIC [10] of 0.6 mg/L (≈ 3.08 µM) and an MIC [11] of 0.4 mg/L (≈ 2.05 µM). The MIC [12] was 2 mg/L (≈ 10.3 µM), the MIC [3] was 2.2 mg/L (≈ 11.3 µM) and the MIC [4] was < 0.6 mg/L. It also gave an MIC [6] of 2.2 mg/L (≈ 11.3 µM).

In the case of `COCCOB1OCc2cc(F)ccc21` [Compound 38], the MIC [1] is reported as 8.9 mg/L (≈ 42.4 µM) and the MIC [2] is reported as 0.6 mg/L (≈ 2.86 µM).

For `COCCCOB1OCc2cc(F)ccc21` [Compound 39], the MIC [1] was 8.9 mg/L (≈ 39.7 µM) and the MIC [2] was 0.6 mg/L (≈ 2.68 µM).

In the case of `OCCOCCOCCOB1OCc2cc(F)ccc21` [Compound 55], the MIC [1] is reported as > 35.7 mg/L and the MIC [2] is reported as 4.5 mg/L (≈ 15.8 µM).

With `OCCOCCOB1OCc2cc(F)ccc21` [Compound 62] the MIC [1] was 8.9 mg/L (≈ 37.1 µM) and the MIC [2] was 2.2 mg/L (≈ 9.17 µM).

Work on `CN(C)CCCOB1OCc2cc(F)ccc21` [Compound 63] yielded an MIC [1] of 17.9 mg/L (≈ 75.5 µM) and an MIC [2] of 1.1 mg/L (≈ 4.64 µM).

`NCCCOB1OCc2cc(F)ccc21` [Compound 64] gave an MIC [1] of 8.9 mg/L (≈ 42.6 µM) and an MIC [2] of 1.1 mg/L (≈ 5.26 µM).

With `CN(CCO)CCOB1OCc2cc(F)ccc21` [Compound 72] the MIC [1] was > 35.7 mg/L and the MIC [2] was 35.7 mg/L (≈ 141 µM).

With `OCCNCCOB1OCc2cc(F)ccc21` [Compound 73] the MIC [1] was > 35.7 mg/L and the MIC [2] was 35.7 mg/L (≈ 149 µM).

Compound `CN(C)CCOB1OCc2cc(F)ccc21` [Compound 74] has an MIC [1] of 35.7 mg/L (≈ 160 µM) and an MIC [2] of 2.2 mg/L (≈ 9.86 µM).

For `OCCCCCCOB1OCc2cc(F)ccc21` [Compound 86], the MIC [1] was 8.9 mg/L (≈ 35.3 µM) and the MIC [2] was 0.6 mg/L (≈ 2.38 µM).

`CNCCOB1OCc2cc(F)ccc21` [Compound 87] was tested, and the MIC [1] was 8.9 mg/L (≈ 42.6 µM) and the MIC [2] was 0.6 mg/L (≈ 2.87 µM).

`OB1OC(N2CCOCC2)c2ccccc21` (stereo not shown) [Compound 114] was tested, and the MIC [1] was > 35.7 mg/L and the MIC [2] was 17.9 mg/L (≈ 81.7 µM).

For `CC(C)(N)COB1OCc2cc(F)ccc21` [Compound 115], the MIC [1] was 8.9 mg/L (≈ 39.9 µM) and the MIC [2] was 0.6 mg/L (≈ 2.69 µM).
